These results are taken from US20240287138A1, “CYCLIC PEPTIDES FOR INHIBITING TNF RECEPTOR 1 ACTIVITY” (Merck Sharp & Dohme LLC, priority 2023, published 2024).

Broadly, the IC50 is the concentration that gives 50% inhibition.

Numbered stars: 1 amine (or outer) side, 2 acyl side, 3 side chain; on linkers, the order of the positions; unused ones are H or OH. Bridge positions count the residues as written; N and C are the ends. Square brackets hold non-standard residues; d marks the D form. Peptide text beside a SMILES is read from it. Trp(βS-Me,7-OMe) = COc1cccc2c([C@H](C)[C@H](N)C(=O)O)c[nH]c12; cBu(1-CO,cis-3-CH2NH) = O=C([C@H]1C[C@@H](CN[*:1])C1)[*:2]; dPro(trans-4-NMe3+) = C[N+](C)(C)[C@@H]1CN[C@@H](C(=O)O)C1; Trp(1-CH2COOH) = N[C@@H](Cc1cn(CC(=O)O)c2ccccc12)C(=O)O; X24 = O=C(O)c1ccc([C@@H](O)[C@H](N[*:1])C(=O)[*:2])cc1; Phe(4-SO2NH2) = N[C@@H](Cc1ccc(S(N)(=O)=O)cc1)C(=O)O; Trp(7-CN) = N#Cc1cccc2c(C[C@H](N)C(=O)O)c[nH]c12; Trp(7-Cl) = N[C@@H](Cc1c[nH]c2c(Cl)cccc12)C(=O)O; Phe(4-CONH2) = NC(=O)c1ccc(C[C@H](N)C(=O)O)cc1; Phe(4-COOH) = N[C@@H](Cc1ccc(C(=O)O)cc1)C(=O)O; Trp(7-aza) = N[C@@H](Cc1c[nH]c2ncccc12)C(=O)O; dPro(cis-4-NH2) = N[C@H]1CN[C@@H](C(=O)O)C1; Pip(5R-OH) = O=C(O)[C@@H]1CC[C@@H](O)CN1; αMeW = C[C@](N)(Cc1c[nH]c2ccccc12)C(=O)O; X1 = O=C([C@@H]1CC[C@H](N[*:1])C1)[*:2]; Pip(4-aza) = O=C(O)[C@@H]1CNCCN1; 4Pal = N[C@@H](Cc1ccncc1)C(=O)O; NMeE = CN[C@@H](CCC(=O)O)C(=O)O; dHyp = O=C(O)[C@H]1C[C@H](O)CN1; aThr = C[C@H](O)[C@H](N)C(=O)O; Dap(Me) = CNC[C@H](N)C(=O)O; αMeS = C[C@](N)(CO)C(=O)O; Nle = CCCC[C@H](N)C(=O)O; Sar = CNCC(=O)O

This assay concerns the target T1, TNFα-induced NF-κB signal transduction pathway (TNFR1 signaling) in THP-1 cells (Homo sapiens, UniProt P19438).
T1 sequence (P19438 30-455): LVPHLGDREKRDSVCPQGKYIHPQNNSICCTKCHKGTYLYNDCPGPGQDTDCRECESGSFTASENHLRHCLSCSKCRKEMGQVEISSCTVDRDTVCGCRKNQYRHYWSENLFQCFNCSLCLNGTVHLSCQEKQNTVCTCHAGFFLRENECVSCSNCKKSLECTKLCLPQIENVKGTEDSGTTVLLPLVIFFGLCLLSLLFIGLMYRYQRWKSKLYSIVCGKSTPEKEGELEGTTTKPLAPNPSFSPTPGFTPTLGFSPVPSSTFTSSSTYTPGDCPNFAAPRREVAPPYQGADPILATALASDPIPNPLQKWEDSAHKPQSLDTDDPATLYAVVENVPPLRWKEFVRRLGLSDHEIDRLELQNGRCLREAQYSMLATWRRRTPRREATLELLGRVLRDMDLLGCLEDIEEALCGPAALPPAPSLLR
In words: THP-1 Lucia NF-κB reporter cell assay, inhibition of TNFα-induced NF-κB signaling. In kind it is cell-based. The conditions noted are these: THP-1 NF-κB Lucia reporter cells, 10 ng/mL TNFα, 16-18 h, secreted luciferase; read-out: THP-1 IC50. Put shortly: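 Read-out: secreted Lucia luciferase luminescence (QUANTI-Luc) from supernatant after 16-18 h, 37 °C, 10 ng/mL rhTNFα. Peptide pretreatment 1 h at 37 °C; 20,000 cells/well, selection antibiotics omitted. IC50 via 4-parameter logistic model against min/max controls.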
`CCCC[C@@H]1NC(=O)[C@@H]2CC[C@@H](C2)NC(=O)[C@H]([C@@H](C)c2c[nH]c3c(OC)cccc23)NC(=O)CN(C)C(=O)[C@H]([C@H](O)c2ccc(C(=O)O)cc2)NC(=O)[C@H](Cc2ccc(C(N)=O)cc2)NC(=O)[C@](C)(CO)NC(=O)[C@H](Cc2c[nH]c3c(Cl)cccc23)NC(=O)[C@H](Cc2ccncc2)NC(=O)[C@H](CC(N)=O)NC(=O)[C@H]2C[C@H](O)CN2C(=O)[C@H](Cc2c[nH]c3ccccc23)NC(=O)[C@@H]2CC[C@@H](O)CN2C(=O)[C@H](Cc2ccncc2)NC1=O` [SEQ ID NO. 188] (cyclo([4Pal][Trp(7-Cl)][αMeS][Phe(4-CONH2)][X24][Sar][Trp(βS-Me,7-OMe)][X1][Nle][4Pal][Pip(5R-OH)]W[dHyp]N)): the IC50 is 0.8 nM.

`CCCC[C@@H]1NC(=O)[C@H]2C[C@@H](CNC(=O)[C@H]([C@@H](C)c3c[nH]c4c(OC)cccc34)NC(=O)CN(C)C(=O)[C@H](Cc3ccc(O)cc3)NC(=O)[C@H](Cc3ccc(C(=O)O)cc3)NC(=O)[C@](C)(CO)NC(=O)[C@H](Cc3c[nH]c4c(Cl)cccc34)NC(=O)[C@H](Cc3ccncc3)NC(=O)[C@H](CC(N)=O)NC(=O)[C@H](CCC(=O)O)N(C)C(=O)[C@H](Cc3c[nH]c4ccccc34)NC(=O)[C@@H]3CNCCN3C(=O)[C@H](Cc3ccncc3)NC1=O)C2` [SEQ ID NO. 268] (cyclo([4Pal][Trp(7-Cl)][αMeS][Phe(4-COOH)]Y[Sar][Trp(βS-Me,7-OMe)][cBu(1-CO,cis-3-CH2NH)][Nle][4Pal][Pip(4-aza)]W[NMeE]N)): the 50% inhibitory concentration (IC50) is 2 nM.

Consider `CCCC[C@@H]1NC(=O)CSC[C@@H](C(N)=O)NC(=O)[C@H]([C@@H](C)c2c[nH]c3c(OC)cccc23)NC(=O)CN(C)C(=O)[C@H](Cc2ccc(O)cc2)NC(=O)[C@H](Cc2ccc(C(N)=O)cc2)NC(=O)[C@](C)(CO)NC(=O)[C@H](Cc2c[nH]c3c(Cl)cccc23)NC(=O)[C@H](Cc2ccncc2)NC(=O)[C@H](CC(N)=O)NC(=O)[C@H]2C[C@@H](N)CN2C(=O)[C@H](Cc2c[nH]c3ncccc23)NC(=O)[C@@H]2CNCCN2C(=O)[C@H](Cc2ccncc2)NC1=O` [SEQ ID NO. 219] ({CH2CO}-[Nle][4Pal][Pip(4-aza)][Trp(7-aza)][dPro(cis-4-NH2)]N[4Pal][Trp(7-Cl)][αMeS][Phe(4-CONH2)]Y[Sar][Trp(βS-Me,7-OMe)]C-NH2; thioether N-14), for which the IC50 turned out to be 1.6 nM.

As to `CCCC[C@@H]1NC(=O)[C@@H]2CC[C@@H](C2)NC(=O)[C@H]([C@@H](C)c2c[nH]c3c(OC)cccc23)NC(=O)CN(C)C(=O)[C@H](Cc2ccc(C(N)=O)cc2)NC(=O)[C@H](Cc2ccc(S(N)(=O)=O)cc2)NC(=O)[C@](C)(CO)NC(=O)[C@H](Cc2c[nH]c3c(C#N)cccc23)NC(=O)[C@H](Cc2ccc(C(=O)O)cc2)NC(=O)[C@H](CC(N)=O)NC(=O)[C@H]2C[C@H]([N+](C)(C)C)CN2C(=O)[C@H](Cc2cn(CC(=O)O)c3ccccc23)NC(=O)[C@@H]2CC[C@@H](O)CN2C(=O)[C@H](Cc2ccncc2)NC1=O` [SEQ ID NO. 9] (cyclo([4Pal][Pip(5R-OH)][Trp(1-CH2COOH)][dPro(trans-4-NMe3+)]N[Phe(4-COOH)][Trp(7-CN)][αMeS][Phe(4-SO2NH2)][Phe(4-CONH2)][Sar][Trp(βS-Me,7-OMe)][X1][Nle])), the IC50 worked out at 0.6 nM.

As to `CCCC[C@@H]1NC(=O)CSC[C@@H](C(N)=O)NC(=O)[C@](C)(Cc2c[nH]c3ccccc23)NC(=O)CN(C)C(=O)[C@H](Cc2ccc(O)cc2)NC(=O)[C@H](Cc2ccc(C(=O)O)cc2)NC(=O)[C@](C)(CO)NC(=O)[C@H](Cc2c[nH]c3c(Cl)cccc23)NC(=O)[C@H](Cc2ccncc2)NC(=O)[C@H](CC(N)=O)NC(=O)[C@H](CCC(=O)O)N(C)C(=O)[C@H](Cc2c[nH]c3ncccc23)NC(=O)[C@H](CNC)NC(=O)[C@H](Cc2ccncc2)NC1=O` [SEQ ID NO. 235] ({CH2CO}-[Nle][4Pal][Dap(Me)][Trp(7-aza)][NMeE]N[4Pal][Trp(7-Cl)][αMeS][Phe(4-COOH)]Y[Sar][αMeW]C-NH2; thioether N-14), the IC50 came out at 5 nM.

For the compound `CCCC[C@@H]1NC(=O)[C@@H]2CC[C@@H](C2)NC(=O)[C@H]([C@@H](C)c2c[nH]c3c(OC)cccc23)NC(=O)CN(C)C(=O)[C@H](Cc2ccc(C(N)=O)cc2)NC(=O)[C@H](Cc2ccc(C(N)=O)cc2)NC(=O)[C@](C)(CO)NC(=O)[C@H](Cc2c[nH]c3c(C#N)cccc23)NC(=O)[C@H](Cc2ccc(C(=O)O)cc2)NC(=O)[C@H]([C@H](C)O)NC(=O)[C@H]2C[C@H](O)CN2C(=O)[C@H](Cc2c[nH]c3ncccc23)NC(=O)[C@@H]2CC[C@@H](O)CN2C(=O)[C@H](Cc2ccncc2)NC1=O` [SEQ ID NO. 122] (cyclo([4Pal][Pip(5R-OH)][Trp(7-aza)][dHyp][aThr][Phe(4-COOH)][Trp(7-CN)][αMeS][Phe(4-CONH2)][Phe(4-CONH2)][Sar][Trp(βS-Me,7-OMe)][X1][Nle])), the half-inhibitory concentration (IC50) is 0.9 nM.
